Three molecules from patent US10350308B2, “Molecular probes for imaging myelin” (priority 2010, dated 2019) can be followed below.

Series [1] deals with LPC induced demyelination lesion. The series can be described thus: CNP staining of rat brain sections after imaging in the focal demyelination model. The series is classed as binding. The following applies: LPC-rats versus saline-rats, compared with Black-Gold II. The method, then: Focal demyelination of adult rat brain. Sprague Dawley female rats (Harlan Laboratory, Indianapolis, Ind.), 12 weeks of age, were used for this study. Animal surgery and care was performed in accordance with the Institutional Animal Care and Use Committee of Case Western Reserve University Animals were anesthetized using a mixture of ketamine hydrochloride (64.2 mg/kg), xylazine hydrochloride (12.9 mg/kg), and acepromazine (12.9 mg/kg) and positioned in a stereotaxic frame (Stoelting). […]
Fresh frozen section: Mice or rats were deeply anesthetized with isoflurane and perfused via the ascending aorta with PBS followed by 4% paraformaldehyde in PBS. […] Tissue from the midline of the brain containing the whole corpus callosum was selected for staining Stained sections were covered with fluorescence mounting medium (Vectashield; Vector Laboratories, Burlingame, Calif.) and stored at 4° C. for future analysis.
Fresh frozen sections with 20 μm thickness were incubated in 0.1% Triton-100 in 1×PBS for 10 min, which was followed by incubation in a solution of CNP (1 mM) in 1% DMSO/1×PBS for 30 min at room temperature. The fresh frozen sections were then washed three times for 5 min each with 1×PBS before cover-slipping with fluorescence mounting medium (Vectashield, Vector laboratories). […]

For series [2], the system named is myelin. Nature of the series: In vivo NIRF imaging in shiverer mouse model. The following applies: for fluorescent intensities in the brain, shiverer versus wild-type mice / time of peak fluorescent signal in shiverer mice / average radiance in wild-type mice relative to shiverer mice: 0.1 mg/kg i.v.; for time of peak fluorescent signal in shiverer mice: brain; for average radiance in wild-type mice relative to shiverer mice: at 30 minutes, after deducting vehicle signals. On the set-up: species or system shiverer mice and wild-type mice.
Experimental: We then evaluated the pharmacokinetic profiles of CNIR in 3-month old female shiverer mice (n=3) and age-matched wild-type mice (n=2). The in vivo NIR imaging was conducted using the same dosage as in the hypermyelinated mouse model. The fluorescent signals were recorded at 2, 4, 6, 8, 10, 15, 20, 25, 30, 40, 50, 60, 70, 80, 90, 100, 110 and 120 min after i.v. injection of CNIR and the vehicle (0.05% DMSO/PBS (V/V)).

The test system of series [3] is MBP. Nature of the series: CNP staining followed by MBP antibody staining in the same brain tissue sections. It is filed as binding, mouse. The following applies: cerebellum, frontal cortex, caudate putamen; CNP 1 mM. The method, then: After incubation with 3% normal goat serum in 1×PBS for 60 min, the fresh frozen sections were immunostained overnight at 4° C. with purified SMI99 mouse monoclonal anti-MBP (Covance, Inc. Princeton, N.J.) 1:500 dilution in 3% normal goat serum in 1×PBS, followed by one hour incubation at room temperature with Fluorescein (FITC) AffiniPure Goat Anti-Mouse IgG (H=L) (Jackson ImmunoResearch Laboratories, Inc. West Grove, Pa.) 1:500 dilution, then rinsed in 1×PBS (2×5′). The stained sections were covered with fluorescence mounting medium (Vectashield, Vector laboratories). Images of the stained mouse brain sections were acquired on a Leica DM5000 inverted microscope (L5 filter, BP 527/30).
Fresh frozen sections with 20 μm thickness were incubated in 0.1% Triton-100 in 1×PBS for 10 min, which was followed by incubation in a solution of CNP (1 mM) in 1% DMSO/1×PBS for 30 min at room temperature. The fresh frozen sections were then washed three times for 5 min each with 1×PBS before cover-slipping with fluorescence mounting medium (Vectashield, Vector laboratories). Images of the stained mouse brain sections were acquired on a Leica DMI5000 inverted microscope (Y5 filter, BP 700/75).
To determine the exact binding sites of CNP, we compared both CNP and MBP staining conducted in the same brain tissue sections. […]

Series [4] deals with myelin sheaths. The series can be described thus: In vitro fluorescent tissue staining of mouse brain sections. It is filed as binding. The following applies: compared with MBP antibody.
Series [5] deals with myelin. The series can be described thus: In vivo NIRF imaging in hypermyelinated mouse model. The arrangement: species or system Plp-Akt-DD mice and wild-type mice. The following applies: 0.1 mg/kg i.v. As to the method: The in vivo Near-infrared fluorescence imaging was carried out using Xenogen IVIS Imaging System 200, (Caliper Life Science, Inc., Hopkinton, Mass.). To avoid the influence of the autofluorescence and light scattering due to the fur, all the mice were shaved before experiment. After the i.v. injection of CNIR 0.1 mg/kg, the mouse was anesthetized utilizing isoflurane gas, the mouse was positioned on the center of the stage (working temperature 20-40° C.). The Near-infrared images were acquired by Back-thinned, back-illuminated grade 1 CCD, which is thermoelectrically cooled to −90° C. ensuring low dark current and low noise. The fluorescent filter set for excitation was 705-780 nm, for emission was 810-885 nm. The experiments were controlled with Living Image 3.1 (Caliper Life Science. Inc., Hopkinton, Mass.). Lens: f/2. Field of view: 6.5 cm×6.5 cm. Imaging Pixels: 2048×2048. Exposure time: 0.5 s for all the images. The near-infrared images were evaluated by Living Image 3.1 (Caliper Life Science. Inc., Hopkinton, Mass.). All the images used photon as the unit for the quantification, and the images were shown as overlaid photograph with fluorescence. Statistical analysis was performed using two-tailed t-test with GraphPad Prism 5, (GraphPad Software, Inc., La Jolla, Calif.). CNIR (0.1 mg/kg) and vehicle (0.05% DMSO/PBS (V/V)) was first administered to the hypermyelinated mouse model through intravenous injected in the tail vein. The fluorescence signals were recorded at 2, 4, 6, 8, 10, 15, 20, 25, 30, 40, 50, 60, 70, 80, 90, 100, 110 and 120 min post injection. To exclude the influence of autofluorescence from the mouse tissues and impact from the solution, the vehicle (0.05% DMSO/PBS (V/V)) also injected and fluorescence was recorded at 2, 4, 6, 8, 10, 15, 20, 25, 30, 40, 50, 60, 70, 80, 90, 100, 110 and 120 min to compare with the CNIR solution (images not shown). […]

The nature of series [6]: Brain permeability by co-registration of fluorescent and X-ray images. It is filed as in vivo. The following applies: 0.1 mg/kg i.v., 20 minutes post injection, wild-type mice. The method, then: The fur of the mouse was shaved to avoid the problem of autofluorescence. 20 minutes after the i.v. injection of CNIR 0.1 mg/kg, the mouse was anesthetized utilizing isoflurane gas. The mouse was positioned on the center of the platen and imaged via fluorescence (ex 760 em 790) and X-ray. Vertical Resolution: 885 ppi, horizontal Resolution: 885 ppi. To determine the brain permeability of CNIR, we administered CNIR to wild-type mice through intravenous injection in tail vein. At 20 minutes post injection of CNIR (0.1 mg/kg), both X-ray and fluorescent images of the mouse brain were acquired using KODAK In-Vivo Multispectral System FX (FIG. 3). Co-registration of high quality X-ray image and fluorescent image confirmed that the strong fluorescence was indeed emitted from inside the brain.

The nature of series [7]: Fluorescent excitation and emission spectra. It is filed as physicochemical. The following applies: 100 nM in DMSO. The method, then: The fluorescent excitation and emission spectrum is recorded using Varian fluorescent spectroscopy at the concentration of […] in DMSO.
The excitation and emission spectra of CNP were recorded using Cary Eclipse Fluorescence Spectrophotometers (Varian, Inc.; Palo Alto, Calif.) at 25° C. in DMSO, at a concentration of 100 nM. The excitation and emission slits were 5 nm, the scan rate was 600 nm/min, and the data interval was 1 nm.

Series [8] deals with myelin. The series can be described thus: In vivo microPET-MR imaging in focal demyelination rat model. As to the method:
Focal demyelination of adult rat brain. Sprague Dawley female rats (Harlan Laboratory, Indianapolis, Ind.), 12 weeks of age, were used for this study. Animal surgery and care was performed in accordance with the Institutional Animal Care and Use Committee of Case Western Reserve University Animals were anesthetized using a mixture of ketamine hydrochloride (64.2 mg/kg), xylazine hydrochloride (12.9 mg/kg), and acepromazine (12.9 mg/kg) and positioned in a stereotaxic frame (Stoelting). A small incision was made in the scalp, and the corpus callosum was targeted using the following stereotaxic coordinates, relative to bregma: anterior-posterior, 0.0 mm; medial-lateral, 2.0; and dorsal-ventral, 3.4. A small hole was drilled in the skull, and a 26 S gauge needle attached to a 10 μl Hamilton Syringe was lowered into the corpus callosum according to the dorsal-ventral coordinate. A microinjector pump (Stoelting) controlled the infusion of 6 μl of lysolethicin (lysophosphatidyl chorine) or saline at a rate of 0.25 μl/min, after which the needle was left in place for 2 min to prevent liquid reflux out of the brain parenchyma. The incision was then closed using 5-0 Ethicon sutures, and the animals were allowed to recover on a heating pad. The imaging of demyelination of the rats and vehicles were performed 5 d after surgery. The rats were kept alive.
Animals were placed in a Concord R4 microPET scanner (Knoxyille, Tenn.) under anesthesia. After a 10 min transmission scan with a Co-57 source, 7.4 MBq of [11C]DAS were administered to each animal through a tail vein injection, which was immediately followed by dynamic acquisition for up to 90 min. A 2-D filtered back projection (FBP) algorithm was used for image reconstruction with a 256×256 pixel resolution per transverse slice. A total of 63 transverse slices were reconstructed with the field of view covering the head of the animals. Decay correction, attenuation correction and scatter correction were all performed during the image histogram and reconstruction processes.
All MR imaging experiments were performed on a Bruker Biospec 7.0T/30 cm MRI and Spectroscopy scanner (Bruker Biospin, Billerica, Mass.). The animal's head was positioned in a 72-mm volume ID cylindrical transceiver coil. […]
Coregistration of MRI and PET images, PET and CT images were conducted by using the MATLAB-based program COMKAT (Compartmental Model Kinetic Analysis Tool). […] After creating uniform images from the PET and MRI images, VOI (Volume of interest) and ROI (Region of interest) were defined and used to measure the radioactivity concentration in the corpus callosums of both hypomyelinated and wild type mice. […]
The radioactivity was decay-corrected and normalized by the body weight of the mice and the amount of [^11C] […]

Where [9] appears, read: corpus callosum, 0-60 min microPET.

Structures are written as SMILES. “Also recorded” adds a separate entry of the source.

As for `COc1cccc(CN2\C(=C/C=C/C=C/C=C/c3sc4ccccc4[n+]3Cc3cccc(OC)c3)Sc3ccccc32)c1.[Br-]` [CNP], the “detection of demyelination lesion in brain sections” value in series [1] is “can detect the LPC induced demyelination lesion”. Besides, in series [2], the “fluorescent intensities in the brain, shiverer versus wild-type mice” value was “significantly different”; the “time of peak fluorescent signal in shiverer mice” value stood at 5 min; the “average radiance in wild-type mice relative to shiverer mice” value is recorded as “four fold greater”. The brain entry entry in series [2] (summary statement at the head of Example 1) is reported as “readily enters the brain”. The “antibody staining of MBP after CNP staining of the same section” value in series [3] is given as “significantly blocked”. Also, the “labeling of myelin sheaths in wild-type mouse brain sections” value in series [4] (100 μM, fresh frozen sections) was “bind specifically to myelin sheaths”. For the same molecule, the “labeling of myelin sheaths in wild-type and shiverer mouse brain sections” value in series [4] (1 mM, fresh frozen sections) is given as “selectively labeled intact myelin sheaths”.

For the molecule `CCN1\C(=C/C=C/C=C/C=C/c2sc3ccccc3[n+]2CC)Sc2ccccc21.[I-]` [CNIR, 3,3′Diethylthiatricarbocyanine iodide], the “fluorescent radiance / average fluorescent intensity in Plp-Akt-DD mice compared with wild-type mice” value in series [5] (2-120 min post injection) is “much stronger; also recorded: higher”. For the same molecule, in series [5] (brain fluorescence), the “clearance in wild-type control mice” value is reported as “fast clearance”. Besides, the “clearance in hypermyelinated (Plp-Akt-DD) mice” value in series [5] (brain fluorescence, compared to WT) is listed as “relatively slower clearance”. In series [2], the “fluorescent intensities in the brain, shiverer versus wild-type mice” value is reported as “significant different”; the “time of peak fluorescent signal in shiverer mice” value came out at 2 min; the “average radiance in wild-type mice relative to shiverer mice” value is “eightfold greater”. Also, in series [6], the brain permeability entry was “can readily penetrate the intact blood-brain barrier”. Besides, in series [7], the maximal emission wavelength came out at 797 nm and the maximal excitation wavelength is recorded as 782 nm. For the same molecule, the “labeling of myelin sheaths in wild-type mouse brain sections” value in series [4] (1 μM, free floating sections) was “selectively labeled intact myelin sheaths”.

As for `COc1cccc(C[n+]2c(/C=C/C=C/C=C/C=C3/Sc4ccccc4N3Cc3cccc(O[11CH3])c3)sc3ccccc32)c1` [[^11C] CNP], the “uptake in control rat brain compared with demyelinated rat brain” value in series [8] (corpus callosum ROI, 60 min microPET scan) is “significantly higher”. Moreover, in series [8] (setting [9]), the “average SUV in demyelinated region, lower than control myelinated region” value came out at 40% and the “average SUV in demyelinated region, lower than remyelinated region” value came out at 20%. In series [8] (white matter versus gray matter), the localization in brain entry is “preferentially localizes in the myelin-rich white matter”.
